Paper PMC6195765 (Organic letters, 2018)

Test system: PvfC
Test: ATP-[…]PPi exchange assay
Type: biochemical, Pseudomonas entomophila
Conditions: ATP co-substrate; adenylation domain

## CC(C)[C@H](N)C(=O)O [L-Val]
  Km: 3.4 ± 0.7 mM
